Literature values as cited in US20120245552A1, “Combination Therapy” (POP TEST CORTISOL LLC, priority 2011, published 2012).

Tests used:
[1] = tested on: other related steroidal hormone receptors (such as those for estrogen and progesterone); settings: cited from earlier work
[2] = phase I and phase II clinical trials; cited from earlier work
GCR = target: T1, GCR (Homo sapiens, UniProt P04150); settings: cited from earlier work
T1 sequence (P04150 1-777): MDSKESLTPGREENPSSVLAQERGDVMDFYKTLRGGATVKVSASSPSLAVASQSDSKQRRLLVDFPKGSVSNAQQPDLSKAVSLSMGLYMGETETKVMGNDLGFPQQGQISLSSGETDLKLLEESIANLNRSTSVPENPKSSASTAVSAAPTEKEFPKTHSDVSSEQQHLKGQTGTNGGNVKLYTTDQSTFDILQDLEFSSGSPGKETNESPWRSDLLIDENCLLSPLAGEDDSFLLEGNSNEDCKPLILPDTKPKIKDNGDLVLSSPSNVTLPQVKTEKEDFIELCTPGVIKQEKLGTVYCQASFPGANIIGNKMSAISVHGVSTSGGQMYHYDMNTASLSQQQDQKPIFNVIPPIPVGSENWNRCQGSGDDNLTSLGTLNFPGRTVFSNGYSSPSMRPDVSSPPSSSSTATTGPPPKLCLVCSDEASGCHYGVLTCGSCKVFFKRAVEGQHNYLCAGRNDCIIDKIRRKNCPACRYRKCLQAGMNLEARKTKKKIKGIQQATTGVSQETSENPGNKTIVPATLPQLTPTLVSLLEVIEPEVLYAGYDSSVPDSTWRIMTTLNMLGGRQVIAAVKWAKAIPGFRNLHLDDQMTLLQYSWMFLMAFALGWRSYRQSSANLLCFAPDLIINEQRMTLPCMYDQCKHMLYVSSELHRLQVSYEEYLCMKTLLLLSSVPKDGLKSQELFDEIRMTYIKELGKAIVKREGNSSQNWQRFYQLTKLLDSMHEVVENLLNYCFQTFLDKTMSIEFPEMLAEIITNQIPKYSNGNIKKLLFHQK

Compound: CC#C[C@]1(O)CC[C@H]2[C@@H]3CCC4=CC(=O)CCC4=C3[C@@H](c3ccc4c(c3)OCO4)C[C@@]21C [ORG 34517, (11β,17β)-11-(1,3-benzodioxol-5-yl)-17-hydroxy-17-(1-propynyl)estra-4,9-dien-3-one]
- cross-binding to other related steroidal hormone receptors [1]: without significant cross-binding
- significant toxicities and side effects [2]: none were identified
- GCR binding affinity (GCR): high
